Experimental findings from patent US20120027741A1 (priority 2009, published 2012) are described below.

Holding throughout (assay type): in vivo
One assay concerns Phytophthora infestans. The assay can be described thus: whole plant or invertebrate. The settings on record: tomatoes, 3 days after inoculation; for pest or weed control at 12.5 ppm: read-out: Efficacy in % found, Table 2.
In another assay the test system is Botrytis cinerea. The assay can be described thus: Botrytis test (beans)/protective. The following applies: 48 h, 2 days after inoculation, read-out: Efficacy in % found; for pest or weed control at 10 ppm: Table 9, 10 ppm a.i.; for pest or weed control at 5 ppm: Table 9, 5 ppm a.i. Here is the method: Botrytis Test (Beans)/Protective
(§1) Solvent: • 24,5 parts by weight of acetone • 24,5 parts by weight of dimethylacetamide
(§2) Emulsifier: • 1 part by weight of alkylaryl polyglycol ether
(§3) To produce a suitable preparation of active compound, 1 part by weight of active compound is mixed with the stated amounts of solvent and emulsifier, and the concentrate is diluted with water to the desired concentration.
To test for protective activity, young plants are sprayed with the preparation of active compound. After the spray coating has dried on, 2 small pieces of agar covered with growth of Botrytis cinerea are placed on each leaf. The inoculated plants are placed in a darkened chamber at 20° C. and a relative atmospheric humidity of 100%.
2 days after the inoculation, the size of the lesions on the leaves is evaluated. 0% means an efficacy which corresponds to that of the control, while an efficacy of 100% means that no disease is observed.

Another assay has as its system Sphaerotheca fuliginea. Kind of assay: Sphaerotheca test (cucumbers)/protective. The settings on record: 7 days after inoculation. Here is the method:
Sphaerotheca Test (Cucumbers)/Protective
as §1, §2, §3
To test for protect activity, young plants are sprayed with the preparation of active compound at the stated rate of application. After the spray coating has dried on, the plants are inoculated with to an aqueous spore suspension of Sphaerotheca fuliginea. The plants are then placed in a greenhouse at approximately 23° C. and a relative atmospheric humidity of approximately 70%.
The test is evaluated 7 days after the inoculation. 0% means an efficacy which corresponds to that of the control, while an efficacy of 100% means that no disease is observed.

The subject of another assay is Pythium ultimum. The assay can be described thus: Pythium test (cotton)/seed treatment. The following applies: emerged seedlings after 7 days. How it is done:
Pythium Test (Cotton)/Seed Treatment
The test is performed under greenhouse conditions.
Cotton seeds, treated with the active compound or compound combinations, solved in N-methyl-2-pyrrolidon and diluted with water to the desired dosages, were sown in 6*6 cm pots containing 4 cm of a 1:1 mix of steamed field soil and sand.
Perlite was incubated with mycelium fragments of Pythium ultimum. 1 ml of infected perlite was scattered between the treated cotton seeds. Seeds were then covered by light expanded clay aggregate. Pots were incubated in the greenhouse 7 days at 20° C. and 80% relative humidity.
Assessment consisted of counting of emerged seedlings. 0% means an efficacy which to corresponds to that of the control, while an efficacy of 100% means that all seedlings have emerged.

[1] abbreviates: Phytophthora infestans, 72 h, 12.5 ppm a.i.
Setting [2] is: Phytophthora infestans, 72 h, read-out: Efficacy in % found, Table 1, 0.4 ppm a.i.
The mark [3] stands for this setting: Podosphaera fuliginea, 168 h, Table 7, 1 ppm a.i., read-out: Efficacy in % found.
Setting [4] is: Phytophthora infestans, 72 h, read-out: Efficacy in % found, Table 1, 40 ppm a.i.

Where a name gives a salt, the structure may show the parent alone. Read-outs that look alike come from different tables or passages of the source.

Regarding `Cc1ccc(C(C)NC(=O)[C@@H](NC(=O)OC(C)C)C(C)C)cc1` (stereo partly drawn) [iprovalicarb], the “Efficacy in % found” value in the assay with Phytophthora infestans (Table 1, 0.4 ppm a.i.) was found to be 0%.
`O=C(NCCc1ncc(C(F)(F)F)cc1Cl)c1ccccc1C(F)(F)F` [fluopyram, N-{2-[3-chloro-5-(trifluoromethyl)pyridin-2-yl]ethyl}-2-(trifluoromethyl)benzamide]: the pest or weed control at 25 ppm with Phytophthora infestans (Phytophthora infestans, 72 h, read-out: Efficacy in % found, Table 3, 25 ppm a.i.) turned out to be 9%. Besides, in the assay on Botrytis cinerea, the pest or weed control at 10 ppm was 70%.
With `CCCOC(=O)NCCCN(C)C` [propamocarb-HCl], in the assay with Phytophthora infestans (setting [1]), the pest or weed control at 12.5 ppm stood at 20%.
As to `C[C@@]1(c2ccc(Oc3ccccc3)cc2)OC(=O)N(Nc2ccccc2)C1=O` (racemic) [famoxadone], the pest or weed control at 0.4 ppm in the assay with Phytophthora infestans (setting [2]) turned out to be 23%.
Take `CCCN(CCOc1c(Cl)cc(Cl)cc1Cl)C(=O)n1ccnc1` [prochloraz]: in the assay on Phytophthora infestans (Phytophthora infestans, 72 h, read-out: Efficacy in % found, Table 4, 100 ppm a.i.), the pest or weed control at 100 ppm was found to be 26%.
`CCCC1COC(Cn2cncn2)(c2ccc(Cl)cc2Cl)O1` (stereo not drawn) [propiconazole]: in the assay with Sphaerotheca fuliginea (setting [3]), the pest or weed control at 1 ppm came out at 13%.
For the molecule `[Cu+2].[OH-].[OH-]` [copper hydroxide], the “Efficacy in % found” value with Phytophthora infestans (Table 2, 6.25 ppm a.i.) is 73%.
Take `COCC(=O)N(c1c(C)cccc1C)[C@H](C)C(=O)OC` [mefenoxam]: in the assay with Pythium ultimum (Table 11, 0.1 g a.i./dt), the “Efficacy in % found” value amounted to 48%.
For the molecule `CCNC(=O)NC(=O)/C(C#N)=N/OC` [cymoxanil], the pest or weed control at 1.25 ppm in the assay with Phytophthora infestans (Phytophthora infestans, 72 h, read-out: Efficacy in % found, Table 6, 1.25 ppm a.i.) is 29%.
On to `Cc1cc(C(F)(F)F)nn1CC(=O)N1CCC(c2nc(C(=O)N(C)[C@@H]3CCCc4ccccc43)cs2)CC1` [N-methyl-2-(1-{[5-methyl-3-(trifluoromethyl)-1H-pyrazol-1-yl]acetyl}piperidin-4-yl)-N-[(1R)-1,2,3,4-tetrahydronaphthalen-1-yl]-1,3-thiazole-4-carboxamide], for which the pest or weed control at 0.1 ppm in the assay with Phytophthora infestans (Phytophthora infestans, 72 h, read-out: Efficacy in % found, Table 1, 0.1 ppm a.i.) was 48%.
`COC(=O)N(OC)c1ccccc1COc1ccn(-c2ccc(Cl)cc2)n1` [pyraclostrobin]: in the assay on Phytophthora infestans (setting [2]), the pest or weed control at 0.4 ppm was 28%.
Consider `Cc1nn(C)c(F)c1C(=O)Nc1ccccc1C(C)CC(C)C` (stereo not drawn) [penflufen], for which, in the assay on Phytophthora infestans (Table 1, 40 ppm a.i.), the “Efficacy in % found” value came to 16%.
As to `CC(C)(C)C(O)C(Oc1ccc(Cl)cc1)n1cncn1` (stereo not drawn) [triadimenol], the pest or weed control at 1 ppm in the assay with Sphaerotheca fuliginea (setting [3]) was 38%.
With `CC(C)(C)C(O)(CCc1ccc(Cl)cc1)Cn1cncn1` (stereo not drawn) [tebuconazole], the pest or weed control at 2 ppm in the assay on Sphaerotheca fuliginea (Podosphaera fuliginea, 168 h, Table 7, 2 ppm a.i., read-out: Efficacy in % found) was found to be 13%.
On to `O=[N+]([O-])c1cc(C(F)(F)F)c(Cl)c([N+](=O)[O-])c1Nc1ncc(C(F)(F)F)cc1Cl` [fluazinam], for which the pest or weed control at 2 ppm with Phytophthora infestans (Phytophthora infestans, 72 h, read-out: Efficacy in % found, Table 1, 2 ppm a.i.) came out at 38%.
With metiram, the “Efficacy in % found” value in the assay with Phytophthora infestans (Table 4, 100 ppm a.i.) was 26%.
Take `[Cl-].[Cu+2].[Cu+2].[OH-].[OH-].[OH-]` [copper oxychloride]: the “Efficacy in % found” value with Phytophthora infestans (Table 2, 6.25 ppm a.i.) was found to be 60%.
On to `O=C(NCc1ncc(C(F)(F)F)cc1Cl)c1c(Cl)cccc1Cl` [fluopicolide], for which the “Efficacy in % found” value in the assay on Pythium ultimum (Table 11, 10 g a.i./dt) is 26%; with Phytophthora infestans (Table 1, 0.4 ppm a.i.) it was 18%.
Regarding `N#Cc1c(Cl)c(Cl)c(Cl)c(C#N)c1Cl` [chlorothalonil], in the assay with Phytophthora infestans (setting [1]), the pest or weed control at 12.5 ppm is 20%.
Regarding `CC1(C(=O)Nc2ccc(O)c(Cl)c2Cl)CCCCC1` [fenhexamid], the pest or weed control at 5 ppm in the assay with Botrytis cinerea came to 81%.
mancozeb: the “Efficacy in % found” value with Phytophthora infestans (Table 1, 20 ppm a.i.) stood at 33%.
Take `Cn1cc(C(=O)Nc2ccccc2-c2cc(F)c(F)c(F)c2)c(C(F)F)n1` [3-(difluoromethyl)-1-methyl-N-(3′,4′,5′-trifluorobiphenyl-2-yl)-1H-pyrazole-4-carboxamide]: in the assay on Phytophthora infestans (Phytophthora infestans, 72 h, read-out: Efficacy in % found, Table 3, 100 ppm a.i.), the pest or weed control at 100 ppm amounted to 35%. In addition, the pest or weed control at 5 ppm with Botrytis cinerea was determined as 65%.
In the case of `CCCCCCCCc1c(CC)nc2ncnn2c1N` [ametoctradin], the “Efficacy in % found” value in the assay on Phytophthora infestans (Table 1, 1 ppm a.i.) is recorded as 22%.
For the molecule `Cn1cc(C(=O)Nc2ccc(F)cc2-c2ccc(Cl)c(Cl)c2)c(C(F)F)n1` [bixafen, N-(3′,4′-dichloro-5-fluorobiphenyl-2-yl)-3-(difluoromethyl)-1-methyl-1H-pyrazole-4-carboxamide], the pest or weed control at 40 ppm in the assay with Phytophthora infestans (setting [4]) came out at 18%. Besides, the pest or weed control at 1 ppm in the assay on Sphaerotheca fuliginea (Podosphaera fuliginea, 168 h, Table 8, 1 ppm a.i., read-out: Efficacy in % found) is 0%.
As for `Cn1cc(C(=O)Nc2ccccc2C2CC2C2CC2)c(C(F)F)n1` (stereo not drawn) [sedaxane], the “Efficacy in % found” value in the assay on Phytophthora infestans (Table 1, 40 ppm a.i.) came to 37%.
With `CC(C)C1C2CCC1c1c(NC(=O)c3cn(C)nc3C(F)F)cccc12` (stereo not drawn) [isopyrazam], in the assay on Phytophthora infestans (Table 1, 40 ppm a.i.), the “Efficacy in % found” value is given as 20%.
For the molecule `O=C1c2ccccc2C(=O)N1SC(Cl)(Cl)Cl` [folpet], the pest or weed control at 50 ppm with Botrytis cinerea (Table 10, 50 ppm a.i.) was 79%.
For `O=C(Nc1ccccc1-c1ccc(Cl)cc1)c1cccnc1Cl` [boscalid], in the assay on Phytophthora infestans (setting [4]), the pest or weed control at 40 ppm came out at 26%. Besides, the pest or weed control at 10 ppm with Botrytis cinerea came to 73%.
As to `CCC(C)(NC(=O)c1cc(Cl)c(C)c(Cl)c1)C(=O)CCl` (stereo not drawn) [zoxamide], in the assay on Phytophthora infestans (setting [2]), the pest or weed control at 0.4 ppm is 16%.
As to `CC(C)CC(C)c1sccc1NC(=O)c1cn(C)nc1C(F)(F)F` (stereo not drawn) [penthiopyrad], in the assay on Phytophthora infestans (setting [4]), the pest or weed control at 40 ppm was 31%.
For the molecule `Cc1cc(C)nc(Nc2ccccc2)n1` [pyrimethanil], the pest or weed control at 25 ppm with Botrytis cinerea (Table 9, 25 ppm a.i.) worked out at 30%.
Turning to propineb, the “Efficacy in % found” value with Phytophthora infestans (Table 2, 6.25 ppm a.i.) came out at 63%.
Regarding `CSC1=N[C@@](C)(c2ccccc2)C(=O)N1Nc1ccccc1` [fenamidone], in the assay with Pythium ultimum (Table 11, 1 g a.i./dt), the “Efficacy in % found” value is given as 4%. For the same molecule, the pest or weed control at 0.4 ppm with Phytophthora infestans (setting [2]) was 57%.
As for `CON=C(C(=O)OC)c1ccccc1CON=C(C)c1cccc(C(F)(F)F)c1` [trifloxystrobin], the pest or weed control at 2.5 ppm with Sphaerotheca fuliginea (Podosphaera fuliginea, 168 h, Table 7, 2.5 ppm a.i., read-out: Efficacy in % found) stood at 58%.
For the molecule `COc1ccc(C(=CC(=O)N2CCOCC2)c2ccc(Cl)cc2)cc1OC` [dimethomorph], the pest or weed control at 0.4 ppm in the assay with Phytophthora infestans (setting [2]) came out at 41%.
On to `COC(=O)[C@@H](C)N(C(=O)Cc1ccccc1)c1c(C)cccc1C` [benalaxyl-M], for which the “Efficacy in % found” value came out at 4% with Pythium ultimum (Table 11, 1 g a.i./dt) and 28% with Phytophthora infestans (Table 5, 1 ppm a.i.).
As to `CO/C=C(/C(=O)OC)c1ccccc1Oc1cc(Oc2ccccc2C#N)ncn1` [azoxystrobin], the “Efficacy in % found” value with Phytophthora infestans (Table 1, 0.4 ppm a.i.) worked out at 30%; in the assay on Sphaerotheca fuliginea (Table 8, 1 ppm a.i.), 30%.
Regarding `CC(C)[C@H](NC(=O)O)C(=O)N[C@H](C)c1nc2ccc(F)cc2s1` [benthiavalicarb], the “Efficacy in % found” value in the assay with Phytophthora infestans (Table 1, 0.1 ppm a.i.) was 48%.
As to `CO/N=C(/C1=NOCCO1)c1ccccc1Oc1ncnc(Oc2ccccc2Cl)c1F` [fluoxastrobin], the pest or weed control at 0.4 ppm in the assay on Phytophthora infestans (setting [2]) was 36%.
Consider `OP(O)O` [phosphorous acid], for which the “Efficacy in % found” value in the assay with Phytophthora infestans (Table 2, 12.5 ppm a.i.) was determined as 0%.
As to `Cc1ccc(-c2c(Cl)nc(C#N)n2S(=O)(=O)N(C)C)cc1` [cyazofamid], in the assay on Phytophthora infestans (setting [2]), the pest or weed control at 0.4 ppm was found to be 49%.
As for `O=c1c2cc(F)ccc2nc(-n2cncn2)n1-c1ccc(Cl)cc1Cl` [fluquinconazole], the pest or weed control at 0.5 ppm with Sphaerotheca fuliginea (Podosphaera fuliginea, 168 h, Table 7, 0.5 ppm a.i., read-out: Efficacy in % found) was determined as 63%.
With `CC(C)NC(=O)N1CC(=O)N(c2cc(Cl)cc(Cl)c2)C1=O` [iprodione], in the assay on Botrytis cinerea (Table 9, 50 ppm a.i.), the pest or weed control at 50 ppm was 70%.
For `OC(Cc1ccccc1Cl)(Cn1nc[nH]c1=S)C1(Cl)CC1` (stereo not drawn) [prothioconazole], the pest or weed control at 1 ppm in the assay with Sphaerotheca fuliginea (setting [3]) came to 50%.
`Fc1ccc([C@]2(Cn3cncn3)O[C@H]2c2ccccc2Cl)cc1` (racemic) [epoxiconazole]: the pest or weed control at 1 ppm with Sphaerotheca fuliginea (setting [3]) came out at 63%.
On to `CCO[PH](=O)O` [fosetyl-Al], for which the “Efficacy in % found” value with Phytophthora infestans (Table 2, 12.5 ppm a.i.) is listed as 0%.
